US9084748B2, “Biopolymer produced by fermenting the extract of soybean with folic acid and a composition containing thereof” (Damy Chemical Co., Ltd., priority 2007, dated 2015)

Legend:
[1] = system: mast cells (ATCC TIB-64, P815); assay: Quantifying histamine secreted by C48/80-stimulated mast cells (ELISA); format: cell-based
Description: This experiment was performed to identify how much the folyl EFS reduces the amount of histamine secreted when mast cells are treated with a stimulant. […] FIG. 2 is a bar chart showing the results of the experiment. […] As described above, it can be seen that the folyl EFS has an excellent anti-histamine (anti-allergic) effect.

[2] = system: mice (BALB/C, male); assay: Anti-allergic (anti-anaphylaxis) test, C48/80 intraperitoneally injected; format: in vivo
Description: C48/80 is a material that stimulates immune organs and induces acute anaphylaxis within 30 minutes when intraperperitoneally injected. In the current experiment, the number of test animals which died within a predetermined time period (24 hours) after the intraperperitoneal injection of the C48/80 was counted. In the current experiment, 10 mice (BALB/C, male) were used per group, and each group was tested for three times and the average value of the three experimental results was represented as a death ratio (%).

[3] = system: human dermal fibroblast neonatal; assay: Collagen biosynthesis promotion, human collagen type-1 ELISA; format: cell-based
Description: The folyl EFS and the human dermal fibroblast neonatal were incubated for 3 days, and the supernatant was isolated and collagen was quantified using a human collagen type-1 ELISA kit (Cosmo Bio Co.). A sample used in the current experiment was a 1% solution containing Composition 2 used in Preparation Example 2, and 4% of 1,3-butyleneglycol was added to the sample and preserved. Also, to compare with the effect of the folyl EFS, a folic acid solution in which the concentration of the folic acid was the same as that in the folyl EFS was prepared. In addition, 10 ng/ml of transforming growth factor-beta (TGF-β; Sigma), which is known as a promotion factor for collagen biosynthesis, was compared with the folyl EFS.
The collagen biosynthesis promotion effect of the folyl EFS is shown in the bar chart of FIG. 8. A folyl EFS produced as a cosmetic source material was a 1% liquid product. In FIG. 8, the concentration (%) of the x-axis denotes a ratio of the volume of the folyl EFS to the volume of the entire culture solution (v/v, %). The results are represented as the ratio of the value of collagen of each group with respect to the average value of collagen in a group not treated with anything when the average value of collagen in the group not treated with anything was set at 100%. […]

[4] = system: human dermal fibroblast neonatal (HDF-N); assay: Cell growth of fibroblast primary culture, neutral red (NR) assay; format: cell-based; conditions: fibroblasts incubated 24 hours
Excerpt: It was identified through the current experiment that the folyl EFS promotes cell growth and collagen biosynthesis. A cell line used in the current experiment was a primary culture of a fibroblast (human dermal fibroblast neonatal; (HDF-N; Gibco, Cooper, M. L. et al, Biomaterials 12:243, 1991), and a culture media used was a fibroblast neonatal growth medium (FGM, KDR Co.). […] Shao-Zeng Z. et al., Cell Biology and Toxicology, 6:2, 1990) (see FIG. 7).

O=C(O)c1cc(=O)c2c(OCC(O)COc3cccc4oc(C(=O)O)cc(=O)c34)cccc2o1 [sodium cromolyn]
ED50 value (histamine secretion inhibition) ([1]; C48/80-stimulated mast cells, ELISA): 0.5%
histamine secretion inhibition rate ([1]; about 0.5% of the sodium cromolyn): 50%
inhibition of development of anaphylaxis ([2]; 1% sodium cromolyn): up to 80%
inhibition of sequela of anaphylaxis ([2]; result in words): did not inhibit sequela of anaphylaxis

TGF-β
maximum promotion rate of collagen biosynthesis ([3]; at 0.63% (v/v, %), 3 days, relative to untreated group set at 100%): 22%

Nc1nc2ncc(CNc3ccc(C(=O)N[C@@H](CCC(=O)O)C(=O)O)cc3)nc2c(=O)[nH]1 [folic acid]
cell growth rate when concentration gradually increased [4]: the cell growth rate was not increased accordingly
collagen biosynthesis promotion effect ([3]; folic acid solution at same folic acid concentration as in folyl EFS): did not occur within an error range
